Laboratory results taken from US20020114786A1, “Pharmaceutical preparations comprising soybean isoflavone extracts and probiotic microogranisms” (priority 2000, published 2002).
Read-outs that look alike come from different tables or passages of the source. Each block holds one compound with its values, some of them ahead of it.

Key:
type II (β) receptors = conditions: activity of estradiol set at 100; cited from earlier work
Lactobacillus casei = assay: metabolism of soybean extract isoflavones in microbial culture, HPLC assay; format: in vitro ADME
Method: (§1) At each of these times, a sample is removed from the microbial cultures, diluted with an equal volume of methanol and then filtered. In each case, the methanolic solution is analyzed by high performance liquid chromatography. […] In this way, the contents of the aglycone and glycosylated forms in the metabolized extract are calculated with respect to the glycosylated forms (100%) in the initial extract.

[1] = system: Propionibacterium acidipropionici; assay: as above; format: in vitro ADME
Method: as §1

Lactobacillus brevis = assay: as above; format: in vitro ADME
Method: as §1

Lactobacillus plantarum = assay: as above; format: in vitro ADME
Method: as §1

Enterococcus faecium = assay: as above; format: in vitro ADME
Method: as §1

[2] = system: Lactobacillus acidophilus; assay: as above; format: in vitro ADME
Method: as §1

Pediococcus acidilactici = assay: as above; format: in vitro ADME
Method: as §1

[3] = system: Streptococcus thermophilus; assay: as above; format: in vitro ADME
Method: as §1

Lactobacillus rhamnosus = assay: as above; format: in vitro ADME
Method: as §1

osteoclastic activity = conditions: cited from earlier work
bone = conditions: cited from earlier work
[4] = selecting isoflavone-metabolizing microorganisms; conditions: microbial culture with soybean extract
Method: At each of these times, a sample is removed from the microbial cultures, diluted with an equal volume of methanol and then filtered. In each case, the methanolic solution is analyzed by high performance liquid chromatography. High performance liquid chromatography is used to assay daidzine, genistine, daidzein and genistein in the initial extract and in the media metabolized by the different microorganisms. In this way, the contents of the aglycone and glycosylated forms in the metabolized extract are calculated with respect to the glycosylated forms (100%) in the initial extract.

Compound: O=c1c(-c2ccc(O)cc2)coc2cc(O)ccc12 [Daidzein, daidzein]
estrogenic activity (type II (β) receptors): 0.013

content in the metabolized extract with respect to the glycosylated forms (100%) in the initial extract (Lactobacillus casei): 80%
content in the metabolized extract with respect to the glycosylated forms (100%) in the initial extract [1]: 33%
content in the metabolized extract with respect to the glycosylated forms (100%) in the initial extract (Lactobacillus brevis): 16%
content in the metabolized extract with respect to the glycosylated forms (100%) in the initial extract (Lactobacillus plantarum): 75%
content in the metabolized extract with respect to the glycosylated forms (100%) in the initial extract (Enterococcus faecium; 72 h): 0.1%
content in the metabolized extract with respect to the glycosylated forms (100%) in the initial extract [2]: 16%
content in the metabolized extract with respect to the glycosylated forms (100%) in the initial extract (Pediococcus acidilactici): 77%
content in the metabolized extract with respect to the glycosylated forms (100%) in the initial extract [3]: 65%
content in the metabolized extract with respect to the glycosylated forms (100%) in the initial extract (Lactobacillus rhamnosus): 26%
Compound: O=c1c(-c2ccc(O)cc2)coc2cc(O[C@@H]3O[C@H](CO)[C@@H](O)[C@H](O)[C@H]3O)ccc12 [Daidzine, daidzine]

content in the metabolized extract with respect to the glycosylated forms (100%) in the initial extract (Lactobacillus casei; Lactobacillus casei culture, time not given): 13%
content in the metabolized extract with respect to the glycosylated forms (100%) in the initial extract ([1]; Propionibacterium acidipropionici culture, time not given): 72%
content in the metabolized extract with respect to the glycosylated forms (100%) in the initial extract (Lactobacillus brevis; Lactobacillus brevis culture, time not given): 81%
content in the metabolized extract with respect to the glycosylated forms (100%) in the initial extract (Lactobacillus plantarum; Lactobacillus plantarum culture, time not given): 44%
content in the metabolized extract with respect to the glycosylated forms (100%) in the initial extract (Enterococcus faecium; Enterococcus faecium culture, cultured 24, 48 and 72 hours, time not given): 80%
content in the metabolized extract with respect to the glycosylated forms (100%) in the initial extract ([2]; Lactobacillus acidophilus culture, time not given): 83%
content in the metabolized extract with respect to the glycosylated forms (100%) in the initial extract (Pediococcus acidilactici; Pediococcus acidilactici culture, time not given): 30%
content in the metabolized extract with respect to the glycosylated forms (100%) in the initial extract ([3]; Streptococcus thermophilus culture, time not given): 25%
content in the metabolized extract with respect to the glycosylated forms (100%) in the initial extract (Lactobacillus rhamnosus; Lactobacillus rhamnosus culture, time not given): 85%
Compound: O=c1c(-c2ccc(O)cc2)coc2cc(O)cc(O)c12 [Genistein, genistein]
estrogenic activity (type II (β) receptors): 0.084
osteoclastic activity (osteoclastic activity): inhibits osteoclastic activity

content in the metabolized extract with respect to the glycosylated forms (100%) in the initial extract (Lactobacillus casei; Lactobacillus casei): 85%
content in the metabolized extract with respect to the glycosylated forms (100%) in the initial extract ([1]; Propionibacterium acidipropionici): 12%
content in the metabolized extract with respect to the glycosylated forms (100%) in the initial extract (Lactobacillus brevis; Lactobacillus brevis): 2%
content in the metabolized extract with respect to the glycosylated forms (100%) in the initial extract (Lactobacillus plantarum; Lactobacillus plantarum): 53%
content in the metabolized extract with respect to the glycosylated forms (100%) in the initial extract (Enterococcus faecium; Enterococcus faecium, 72 h): 5.5%
content in the metabolized extract with respect to the glycosylated forms (100%) in the initial extract ([2]; Lactobacillus acidophilus): 6.5%
content in the metabolized extract with respect to the glycosylated forms (100%) in the initial extract (Pediococcus acidilactici; Pediococcus acidilactici): 63%
content in the metabolized extract with respect to the glycosylated forms (100%) in the initial extract ([3]; Streptococcus thermophilus): 73%
content in the metabolized extract with respect to the glycosylated forms (100%) in the initial extract (Lactobacillus rhamnosus; Lactobacillus rhamnosus): 5%
Compound: O=c1c(-c2ccc(O)cc2)coc2cc(O[C@@H]3O[C@H](CO)[C@@H](O)[C@H](O)[C@H]3O)cc(O)c12 [Genistine, genistine]

Compound: Oc1ccc([C@H]2COc3cc(O)ccc3C2)cc1 [equol, reference compound]
estrogenic activity (type II (β) receptors): 0.61

Compound: CC(C)Oc1ccc2c(=O)c(-c3ccccc3)coc2c1 [ipriflavone]
bone gain (bone; 500 to 600 mg per day, 40 menopausal women suffering from osteoporosis): bone gain at the level of L1-L5, with a return to normal in 12 months
bone losses (bone; women being treated with LHRH agonists): possible to avoid bone losses

Compound: Lactobacillus acidophilus
ranking of strains by isoflavone-metabolizing activity [4]: the most active strains

Compound: estradiol [reference compound]
estrogenic activity (type II (β) receptors): 100
